According to US20130302442A1, “METHODS OF USING (4S,4AS,5AR,12AS)-4-DIMETHYLAMINO-3,10,12,12A-TETRAHYDROXY-7-[(METHOXY(METHYL)AMINO)-METHYL]-1,11-DIOXO-1,4,4A,5,5A,6,11,12A-OCTAHYDRO-NAPHTHACENE-2-CARBOXYLIC ACID AMIDE” (priority 2012, published 2013):
Converted amounts (≈) assume the structure as drawn. Where two headings read alike, the source gives them in different places.

Experiments:
Chlamydia pneumoniae = assay: Susceptibility testing (MIC, MBC) of 10 isolates of C. pneumoniae in HEp-2 cells; type: cell-based
[1] = test system: Lactobacillus acidophilus; assay: In vitro MIC testing against anaerobic bacteria; type: cell-based; conditions: Lactobacillus acidophilus 0681
S. aureus = assay: In vitro MIC testing, antibacterial spectrum of activity; type: cell-based, Staphylococcus aureus; conditions: for MIC50 / MIC90 / MIC: Staphylococcus aureus; for MIC50: read-out: MIC50; for MIC90: read-out: MIC90
[2] = test system: community-acquired methicillin-resistant S. aureus (MRSA-CA); assay: In vitro MIC against isolates of MRSA-CA; type: cell-based, Staphylococcus aureus
P. acnes = assay: In vitro MIC testing, antibacterial spectrum of activity; type: cell-based, Propionibacterium acnes; conditions: for MIC50: read-out: MIC50; for MIC90: read-out: MIC90
E. faecalis = assay: as above; type: cell-based; conditions: for MIC / MIC50 / MIC90: Enterococcus faecalis; for MIC50: read-out: MIC50; for MIC90: read-out: MIC90
[3] = test system: Peptostreptococcus micros; assay: In vitro MIC testing against anaerobic bacteria; type: cell-based; conditions: Parvimonas micra, read-out: MIC
S. haemolyticus = assay: In vitro MIC testing, antibacterial spectrum of activity; type: cell-based; conditions: S. haemolyticus (33 isolates); for MIC50 / MIC90: Staphylococcus haemolyticus; for MIC50: read-out: MIC50; for MIC90: read-out: MIC90
[4] = test system: Streptococcus constellatus; assay: In vitro MIC testing against anaerobic bacteria; type: cell-based; conditions: Streptococcus constellatus, ATCC27823
Bacteroides fragilis = assay: In vitro MIC testing against anaerobic bacteria; type: cell-based
[5] = test system: methicillin-sensitive S. aureus (MSSA); assay: In vitro MIC against isolates of MSSA; type: cell-based, Staphylococcus aureus
Chlamydia trachomatis [6] = assay: In vitro susceptibility testing of Chlamydia trachomatis in HEp-2 cells (first study); type: cell-based; conditions: Chlamydia trachomatis, C. trachomatis strains, read-out: MIC at which 90% of the strains were inhibited (MIC90)
Chlamydia trachomatis [7] = assay: Susceptibility testing (MIC, MBC) of 10 isolates of C. trachomatis in HEp-2 cells; type: cell-based
Lactobacillus casei = assay: In vitro MIC testing against anaerobic bacteria; type: cell-based; conditions: Lacticaseibacillus casei, ATCC393; Lactobacillus casei 1722, ATCC 393
[8] = test system: hospital-associated methicillin-resistant S. aureus (MRSA-HA); assay: In vitro MIC against isolates of MRSA-HA; type: cell-based, Staphylococcus aureus; conditions: MRSA-HA (33 isolates)
E. cloacae = assay: In vitro MIC testing, antibacterial spectrum of activity; type: cell-based; conditions: Enterobacter cloacae; E. cloacae (30 isolates)
Salmonella Spp. = assay: as above; type: cell-based; conditions: Salmonella
[9] = MRSA, S. aureus [MRSA] (31 isolates)
[10] = MSSA, S. aureus [MSSA] (32 isolates)
[11] = Staphylococcus aureus, MRSA-CA (33 isolates)
[12] = Cutibacterium acnes, P. acnes [clinical isolates] (55 isolates)
[13] = Cutibacterium acnes, P. acnes [tetS] (13 isolates)
[14] = E. faecalis [VSE] (31 isolates)
[15] = E. faecalis [tetS] (4 isolates)
[16] = Bacteroides fragilis 3374, read-out: MIC

## C[C@H]1c2cccc(O)c2C(=O)C2=C(O)[C@]3(O)C(=O)C(C(N)=O)=C(O)[C@@H](N(C)C)[C@@H]3[C@@H](O)[C@@H]21 [Doxycycline, doxycycline]
Chlamydia pneumoniae; 72 h
  MIC Range: 0.0625 to 0.125 mg/L
Chlamydia pneumoniae; Chlamydia pneumoniae, 72 h
  MIC50: 0.125 mg/L (≈ 0.281 µM)
  MIC90: 0.125 mg/L (≈ 0.281 µM)
Chlamydia pneumoniae; Chlamydia pneumoniae, after passage, read-out: MBC 90%
  MBC: 0.5 mg/L (≈ 1.13 µM)
Chlamydia pneumoniae; after passage
  MBC 90%: 0.5 mg/L (≈ 1.13 µM)
  MBC Range: 0.25 to 0.5 mg/L
[1]
  MIC: 2 mg/L (≈ 4.5 µM)
S. aureus; S. aureus [MRSA] (31 isolates)
  MIC Range: 0.12 to 2 mg/L
S. aureus; S. aureus [MSSA] (32 isolates)
  MIC Range: 0.12 to 8 mg/L
S. aureus; S. aureus [tetR] (10 isolates)
  MIC Range: 1 to 16 mg/L
  MIC50: 4 mg/L (≈ 9 µM)
  MIC90: 16 mg/L (≈ 36 µM)
S. aureus; S. aureus [tetS] (20 isolates)
  MIC Range: ≦0.06-0.25 μg/mL
  MIC50: ≤ 0.06 mg/L
  MIC90: 0.25 mg/L (≈ 0.563 µM)
S. aureus; [9]
  MIC50: 0.12 mg/L (≈ 0.27 µM)
  MIC90: 0.25 mg/L (≈ 0.563 µM)
S. aureus; [10]
  MIC50: 0.12 mg/L (≈ 0.27 µM)
  MIC90: 0.25 mg/L (≈ 0.563 µM)
S. aureus; S. aureus strain PBS # 1309, tetK
  MIC: 2 mg/L (≈ 4.5 µM)
S. aureus; S. aureus strain PBS # 1310, tetM
  MIC: 16 mg/L (≈ 36 µM)
S. aureus; S. aureus strain PBS # 1739, tet38
  MIC: 2 mg/L (≈ 4.5 µM)
[2]; MRSA-CA (33 isolates)
  MIC Range: 0.12 to 8 mg/L
[2]; [11]
  MIC50: 0.12 mg/L (≈ 0.27 µM)
  MIC90: 2 mg/L (≈ 4.5 µM)
[2]; Staphylococcus aureus, single strain of doxycycline-resistant MRSA-CA
  MIC: 8 mg/L (≈ 18 µM)
P. acnes; Cutibacterium acnes
  MIC: 8 mg/L (≈ 18 µM)
P. acnes; [12]
  MIC50: 0.5 mg/L (≈ 1.13 µM)
  MIC90: 2 mg/L (≈ 4.5 µM)
P. acnes; [13]
  MIC50: 0.25 mg/L (≈ 0.563 µM)
  MIC90: 1 mg/L (≈ 2.25 µM)
P. acnes; P. acnes [clinical isolates] (55 isolates)
  MIC Range: 0.25 to 16 µg/mL
P. acnes; P. acnes [tetR] (2 isolates)
  MIC Range: 8-8 μg/mL
P. acnes; P. acnes [tetS] (2 isolates)
  MIC Range: 0.12 to 0.5 µg/mL
P. acnes; P. acnes [tetS] (13 isolates)
  MIC Range: 0.25 to 1 µg/mL
E. faecalis; [14]
  MIC Range: 0.12 to 16 mg/L
  MIC50: 8 mg/L (≈ 18 µM)
  MIC90: 8 mg/L (≈ 18 µM)
E. faecalis; E. faecalis [tetR] (6 isolates)
  MIC Range: 2 to 16 mg/L
E. faecalis; [15]
  MIC Range: ≦0.06-0.125 μg/mL
E. faecalis; E. faecalis strain PBS # 274, tetL
  MIC: 16 mg/L (≈ 36 µM)
E. faecalis; E. faecalis strain PBS # 276, tetM
  MIC: 8 mg/L (≈ 18 µM)
E. faecalis; E. faecalis strain PBS # 949, tetS
  MIC: 2 mg/L (≈ 4.5 µM)
[3]; Peptostreptococcus micros 3432
  MIC: 0.12 mg/L (≈ 0.27 µM)
[3]; Peptostreptococcus micros 3545
  MIC: 0.5 mg/L (≈ 1.13 µM)
S. haemolyticus
  MIC Range: 0.06 to 16 mg/L
  MIC50: 0.5 mg/L (≈ 1.13 µM)
  MIC90: 16 mg/L (≈ 36 µM)
[4]
  MIC: 16 mg/L (≈ 36 µM)
Bacteroides fragilis; [16]
  MIC: 0.12 mg/L (≈ 0.27 µM)
Bacteroides fragilis; Bacteroides fragilis 3479
  MIC: 16 mg/L (≈ 36 µM)
[5]; MSSA (34 isolates)
  MIC Range: 0.12 to 8 mg/L
[5]; Staphylococcus aureus, MSSA (34 isolates)
  MIC50: 0.25 mg/L (≈ 0.563 µM)
[5]; Staphylococcus aureus, MSSA (34 isolates), read-out: MIC90
  MIC90: 0.5 mg/L (≈ 1.13 µM)
[5]; Staphylococcus aureus, single strain of doxycycline-resistant MSSA
  MIC: 8 mg/L (≈ 18 µM)
Chlamydia trachomatis [6]
  MIC90: 0.125 mg/L (≈ 0.281 µM)
Chlamydia trachomatis [7]; 72 h
  MIC Range: 0.03 to 0.25 mg/L
Chlamydia trachomatis [7]; Chlamydia trachomatis, 72 h
  MIC50: 0.06 mg/L (≈ 0.135 µM)
  MIC90: 0.125 mg/L (≈ 0.281 µM)
Chlamydia trachomatis [7]; Chlamydia trachomatis, after passage, read-out: MBC 90%
  MBC: 0.125 mg/L (≈ 0.281 µM)
Chlamydia trachomatis [7]; after passage
  MBC Range: 0.03 to 0.25 mg/L
Lactobacillus casei
  MIC: 2 mg/L (≈ 4.5 µM)
[8]
  MIC Range: 0.12 to 1 mg/L
[8]; Staphylococcus aureus
  MIC50: 0.25 mg/L (≈ 0.563 µM)
  MIC90: 0.5 mg/L (≈ 1.13 µM)

## CN(C)c1ccc(O)c2c1C[C@H]1C[C@H]3[C@H](N(C)C)C(O)=C(C(N)=O)C(=O)[C@@]3(O)C(O)=C1C2=O [Minocycline, minocycline]
[1]
  MIC: 0.5 mg/L (≈ 1.09 µM)
E. cloacae
  MIC90: 16 mg/L (≈ 35 µM)
E. faecalis; [15]
  MIC Range: 0.25 to 0.5 mg/L
E. faecalis; [14]
  MIC50: 8 mg/L (≈ 17.5 µM)
  MIC90: 16 mg/L (≈ 35 µM)
[3]; Peptostreptococcus micros 3432
  MIC: 0.06 mg/L (≈ 0.131 µM)
[3]; Peptostreptococcus micros 3545
  MIC: 0.25 mg/L (≈ 0.546 µM)
S. haemolyticus
  MIC Range: ≦0.03-0.5 μg/mL
  MIC50: 0.06 mg/L (≈ 0.131 µM)
  MIC90: 0.5 mg/L (≈ 1.09 µM)
Bacteroides fragilis; [16]
  MIC: 0.03 mg/L (≈ 0.0656 µM)
Bacteroides fragilis; Bacteroides fragilis 3479, read-out: MIC
  MIC: 8 mg/L (≈ 17.5 µM)
Salmonella Spp.
  MIC50: 2 mg/L (≈ 4.37 µM)
Lactobacillus casei
  MIC: 0.5 mg/L (≈ 1.09 µM)
